According to US10758534B2 (Vertex Pharmaceuticals Incorporated, priority 2014, dated 2020):

Target: T1, F508del (Homo sapiens, UniProt P13569, DEL508-508)
T1 construct: expressed in transfected cells
Assay: Protocol 2: FRET membrane potential optical assay (VIPR), identification of correction compounds
Format: cell-based
Conditions: F508del CFTR modulator activity; compounds of Table 1; read-out: EC30
Outline: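 NIH3T3 mouse fibroblasts stably expressing F508del-CFTR incubated with compound 16 h at 37 °C in serum-free medium, then loaded with CC2-DMPE/DiSBAC2(3) FRET dyes. Channel activated with 10 μM forskolin plus 20 μM genistein in Cl⁻-free (gluconate) bath; depolarisation from Cl⁻ efflux read on VIPR II.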

T1 sequence (P13569 with tags, fused parts or gaps DEL508-508): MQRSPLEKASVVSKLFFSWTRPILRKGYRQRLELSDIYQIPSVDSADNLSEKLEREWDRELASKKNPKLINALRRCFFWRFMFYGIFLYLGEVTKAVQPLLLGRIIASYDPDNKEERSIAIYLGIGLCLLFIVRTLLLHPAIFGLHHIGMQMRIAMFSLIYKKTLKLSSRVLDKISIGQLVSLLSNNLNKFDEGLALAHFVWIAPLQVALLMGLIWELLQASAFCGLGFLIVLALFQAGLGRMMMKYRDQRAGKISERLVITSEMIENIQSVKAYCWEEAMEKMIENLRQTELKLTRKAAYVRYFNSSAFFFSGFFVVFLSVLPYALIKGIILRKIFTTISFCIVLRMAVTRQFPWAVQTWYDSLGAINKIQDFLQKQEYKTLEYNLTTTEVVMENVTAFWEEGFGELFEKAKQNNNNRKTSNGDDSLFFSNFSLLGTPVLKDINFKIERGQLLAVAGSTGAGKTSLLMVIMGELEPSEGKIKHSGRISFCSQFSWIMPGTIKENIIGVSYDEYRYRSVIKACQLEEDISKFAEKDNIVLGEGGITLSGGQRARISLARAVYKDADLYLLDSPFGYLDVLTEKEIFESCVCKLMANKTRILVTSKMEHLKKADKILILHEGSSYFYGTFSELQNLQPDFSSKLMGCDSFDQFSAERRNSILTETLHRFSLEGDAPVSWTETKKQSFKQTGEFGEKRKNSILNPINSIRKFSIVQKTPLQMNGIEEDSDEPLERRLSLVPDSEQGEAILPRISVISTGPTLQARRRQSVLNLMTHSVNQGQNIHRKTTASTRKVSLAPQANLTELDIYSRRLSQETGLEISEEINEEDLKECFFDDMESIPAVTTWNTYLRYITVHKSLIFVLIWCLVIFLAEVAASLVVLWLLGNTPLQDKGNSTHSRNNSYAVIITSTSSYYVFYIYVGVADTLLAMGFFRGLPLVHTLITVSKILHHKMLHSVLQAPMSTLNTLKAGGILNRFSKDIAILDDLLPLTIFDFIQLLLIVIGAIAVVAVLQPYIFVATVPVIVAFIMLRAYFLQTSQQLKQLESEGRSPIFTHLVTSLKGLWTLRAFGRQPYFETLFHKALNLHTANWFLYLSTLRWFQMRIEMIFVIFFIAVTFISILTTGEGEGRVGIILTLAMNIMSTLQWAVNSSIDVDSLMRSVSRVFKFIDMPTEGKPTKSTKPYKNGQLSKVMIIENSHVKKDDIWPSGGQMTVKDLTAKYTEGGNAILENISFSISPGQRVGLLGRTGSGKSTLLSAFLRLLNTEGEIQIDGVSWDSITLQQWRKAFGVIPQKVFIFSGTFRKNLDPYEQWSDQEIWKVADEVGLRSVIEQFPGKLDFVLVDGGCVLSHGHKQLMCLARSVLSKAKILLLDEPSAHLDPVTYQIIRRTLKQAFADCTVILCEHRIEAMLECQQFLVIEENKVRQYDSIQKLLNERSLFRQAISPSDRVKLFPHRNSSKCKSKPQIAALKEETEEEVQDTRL

Row | Structure (SMILES) | EC30 [nM]
1 | CC1CN(c2ncccc2C(=O)NS(=O)(=O)c2cccc(Nc3cccc4ccccc34)n2)C(C)(C)C1 (stereo not shown) [Compound 2136, N—[[6-(1-naphthylamino)-2-pyridyl]sulfonyl]-2-(2,2,4-trimethylpyrrolidin-1-yl)pyridine-3-carboxamide] | < 3000
2 | CC1CN(c2ncccc2C(=O)NS(=O)(=O)c2cccc(OCC(C)(C)n3cccc3)n2)C(C)(C)C1 (stereo not shown) [Compound 2137, N—[[6-(2-methyl-2-pyrrol-1-yl-propoxy)-2-pyridyl]sulfonyl]-2-(2,2,4-trimethylpyrrolidin-1-yl)pyridine-3-carboxamide] | < 3000
3 | CCOc1ccc(F)c(-c2ccc(C(=O)NS(=O)(=O)c3ccc[nH]c3=O)c(N3C[C@@H](C)CC3(C)C)n2)c1 [Compound 2138, 6-(5-ethoxy-2-fluoro-phenyl)-N-[(2-oxo-1H-pyridin-3-yl)sulfonyl]-2-[(4S)-2,2,4-trimethylpyrrolidin-1-yl]pyridine-3-carboxamide] | < 3000
4 | CC(C)(C)c1ccc(C(=O)NS(=O)(=O)c2cccc(N)n2)c(N2CCC(C3CCOCC3)C2(C)C)n1 (stereo not shown) [Compound 2139] | < 3000
5 | COC(=O)c1ccc(Nc2cccc(S(=O)(=O)NC(=O)c3cccnc3N3CC(C)CC3(C)C)n2)nc1 (stereo not shown) [Compound 2140, methyl 6-[[6-[[2-(2,2,4-trimethylpyrrolidin-1-yl)pyridine-3-carbonyl]sulfamoyl]-2-pyridyl]amino]pyridine-3-carboxylate] | 3000 to 10000
6 | C[C@@H]1CN(c2ncccc2C(=O)NS(=O)(=O)N2CCN(CCCc3ccc(Cl)cc3)CC2)C(C)(C)C1 [Compound 2141, N-[4-[3-(4-chlorophenyl)propyl]piperazin-1-yl]sulfonyl-2-[(4S)-2,2,4-trimethylpyrrolidin-1-yl]pyridine-3-carboxamide] | < 3000
7 | CC1CN(c2ncccc2C(=O)NS(=O)(=O)c2cccc(Nc3cccc(C(C)(C)C)c3)n2)C(C)(C)C1 (stereo not shown) [Compound 2142, N—[[6-(3-tert-butylanilino)-2-pyridyl]sulfonyl]-2-(2,2,4-trimethylpyrrolidin-1-yl)pyridine-3-carboxamide] | < 3000
8 | CC1CN(c2ncccc2C(=O)NS(=O)(=O)c2cccc(Nc3cccc(OC(F)(F)F)c3)n2)C(C)(C)C1 (stereo not shown) [Compound 2143, N—[[6-[3-(trifluoromethoxy)anilino]-2-pyridyl]sulfonyl]-2-(2,2,4-trimethylpyrrolidin-1-yl)pyridine-3-carboxamide] | < 3000
9 | C[C@@H]1CN(c2nc(-c3cccc(C(F)(F)F)c3)ccc2C(=O)NS(=O)(=O)c2ccc[nH]c2=O)C(C)(C)C1 [Compound 2144, N-[(2-oxo-1H-pyridin-3-yl)sulfonyl]-6-[3-(trifluoromethyl)phenyl]-2-[(4S)-2,2,4-trimethylpyrrolidin-1-yl]pyridine-3-carboxamide] | < 3000
10 | CC1CN(c2ncccc2C(=O)NS(=O)(=O)c2cccc(Oc3ccc(Cl)cc3)n2)C(C)(C)C1 (stereo not shown) [Compound 2145, N—[[6-(4-chlorophenoxy)-2-pyridyl]sulfonyl]-2-(2,2,4-trimethylpyrrolidin-1-yl)pyridine-3-carboxamide] | < 3000
11 | CC1CN(c2ncccc2C(=O)NS(=O)(=O)c2cccc(NCCc3cccs3)n2)C(C)(C)C1 (stereo not shown) [Compound 2146, N—[[6-[2-(2-thienyl)ethylamino]-2-pyridyl]sulfonyl]-2-(2,2,4-trimethylpyrrolidin-1-yl)pyridine-3-carboxamide] | < 3000
12 | CC1CN(c2ncccc2C(=O)NS(=O)(=O)c2cccc(OC3C=CCCC3)n2)C(C)(C)C1 (stereo not shown) [Compound 2147, N-[(6-cyclohex-2-en-1-yloxy-2-pyridyl)sulfonyl]-2-(2,2,4-trimethylpyrrolidin-1-yl)pyridine-3-carboxamide] | < 3000
13 | Cc1ccc(-c2ccc(C(=O)NS(=O)(=O)c3ccc[nH]c3=O)c(N3C[C@@H](C)CC3(C)C)n2)c(O)c1 [Compound 2148, 6-(2-hydroxy-4-methyl-phenyl)-N-[(2-oxo-1H-pyridin-3-yl)sulfonyl]-2-[(4S)-2,2,4-trimethylpyrrolidin-1-yl]pyridine-3-carboxamide] | 3000 to 10000
14 | CCOc1ccc(F)c(-c2ccc(C(=O)NS(=O)(=O)c3cccnc3N)c(N3C[C@@H](C)CC3(C)C)n2)c1 [Compound 2149, N-[(2-amino-3-pyridyl)sulfonyl]-6-(5-ethoxy-2-fluoro-phenyl)-2-[(4S)-2,2,4-trimethylpyrrolidin-1-yl]pyridine-3-carboxamide] | < 3000
15 | CC(C)Cc1ccc(C(=O)NS(=O)(=O)c2cccnc2N)c(N2C[C@@H](C)CC2(C)C)n1 [Compound 2150, N-[(2-amino-3-pyridyl)sulfonyl]-6-isobutyl-2-[(4S)-2,2,4-trimethylpyrrolidin-1-yl]pyridine-3-carboxamide] | < 3000
16 | CC1CN(c2ncccc2C(=O)NS(=O)(=O)c2cccc(OCc3ccc4ccccc4c3)n2)C(C)(C)C1 (stereo not shown) [Compound 2151, N—[[6-(2-naphthylmethoxy)-2-pyridyl]sulfonyl]-2-(2,2,4-trimethylpyrrolidin-1-yl)pyridine-3-carboxamide] | < 3000

Row | Structure (SMILES) | EC30 [nM]
17 | COC1CCCN(c2cccc(S(=O)(=O)NC(=O)c3cccnc3N3CC(C)CC3(C)C)n2)C1 (stereo not shown) [Compound 2152, N—[[6-(3-methoxy-1-piperidyl)-2-pyridyl]sulfonyl]-2-(2,2,4-trimethylpyrrolidin-1-yl)pyridine-3-carboxamide] | 3000 to 10000
18 | CC(C)COc1ccc(-c2ccc(C(=O)NS(=O)(=O)c3ccc[nH]c3=O)c(N3C[C@@H](C)CC3(C)C)n2)cc1 [Compound 2153, 6-(4-isobutoxyphenyl)-N-[(2-oxo-1H-pyridin-3-yl)sulfonyl]-2-[(4S)-2,2,4-trimethylpyrrolidin-1-yl]pyridine-3-carboxamide] | < 3000
19 | Cc1ccc(-c2ccc(C(=O)NS(=O)(=O)c3ccc[nH]c3=O)c(N3C[C@@H](C)CC3(C)C)n2)cc1C [Compound 2154, 6-(3,4-dimethylphenyl)-N-[(2-oxo-1H-pyridin-3-yl)sulfonyl]-2-[(4S)-2,2,4-trimethylpyrrolidin-1-yl]pyridine-3-carboxamide] | < 3000
20 | CC(C)COc1cc(F)cc(-c2ccc(C(=O)NS(=O)(=O)c3cccc(N)n3)c(N3CC(F)(F)C3)n2)c1 [Compound 2155, N-[(6-amino-2-pyridyl)sulfonyl]-2-(3,3-difluoroazetidin-1-yl)-6-(3-fluoro-5-isobutoxy-phenyl)pyridine-3-carboxamide] | 3000 to 10000
21 | CC(C)Oc1cccc(-c2ccc(C(=O)NS(=O)(=O)N3CC[C@H](N)C3)c(N3C[C@@H](C)CC3(C)C)n2)c1 [Compound 2156, N-[(3S)-3-aminopyrrolidin-1-yl]sulfonyl-6-(3-isopropoxyphenyl)-2-[(4S)-2,2,4-trimethylpyrrolidin-1-yl]pyridine-3-carboxamide] | < 3000
22 | CC1CN(c2ncc(-c3cccc4[nH]ncc34)cc2C(=O)NS(=O)(=O)c2cccc(N)n2)C(C)(C)C1 (stereo not shown) [Compound 2157, N-[(6-amino-2-pyridyl)sulfonyl]-5-(1H-indazol-4-yl)-2-(2,2,4-trimethylpyrrolidin-1-yl)pyridine-3-carboxamide] | > 10000
23 | COc1cccc(-c2ccc(C(=O)NS(=O)(=O)c3cccnc3N)c(N3C[C@@H](C)CC3(C)C)n2)c1O [Compound 2158, N-[(2-amino-3-pyridyl)sulfonyl]-6-(2-hydroxy-3-methoxy-phenyl)-2-[(4S)-2,2,4-trimethylpyrrolidin-1-yl]pyridine-3-carboxamide] | 3000 to 10000
24 | C[C@@H]1CN(c2nc(-c3ccc(F)cc3F)ccc2C(=O)NS(=O)(=O)c2ccc[nH]c2=O)C(C)(C)C1 [Compound 2159, 6-(2,4-difluorophenyl)-N-[(2-oxo-1H-pyridin-3-yl)sulfonyl]-2-[(4S)-2,2,4-trimethylpyrrolidin-1-yl]pyridine-3-carboxamide] | < 3000
25 | Cc1cc(C)nc(Nc2cccc(S(=O)(=O)NC(=O)c3cccnc3N3CC(C)CC3(C)C)n2)c1 (stereo not shown) [Compound 2160, N—[[6-[(4,6-dimethyl-2-pyridyl)amino]-2-pyridyl]sulfonyl]-2-(2,2,4-trimethylpyrrolidin-1-yl)pyridine-3-carboxamide] | 3000 to 10000
26 | CC1CN(c2ncccc2C(=O)NS(=O)(=O)c2cccc(OCCc3ccsc3)n2)C(C)(C)C1 (stereo not shown) [Compound 2161, N—[[6-[2-(3-thienyl)ethoxy]-2-pyridyl]sulfonyl]-2-(2,2,4-trimethylpyrrolidin-1-yl)pyridine-3-carboxamide] | < 3000
27 | C[C@@H]1CN(c2nc(-c3cccc(F)c3F)ccc2C(=O)NS(=O)(=O)c2ccc[nH]c2=O)C(C)(C)C1 [Compound 2162, 6-(2,3-difluorophenyl)-N-[(2-oxo-1H-pyridin-3-yl)sulfonyl]-2-[(4S)-2,2,4-trimethylpyrrolidin-1-yl]pyridine-3-carboxamide] | < 3000
28 | C[C@@H]1CN(c2nc(-c3cccc4c3OCC4)ccc2C(=O)NS(=O)(=O)c2cccnc2N)C(C)(C)C1 [Compound 2163, N-[(2-amino-3-pyridyl)sulfonyl]-6-(2,3-dihydrobenzofuran-7-yl)-2-[(4S)-2,2,4-trimethylpyrrolidin-1-yl]pyridine-3-carboxamide] | < 3000
29 | COc1cccc(-c2ccc(C(=O)NS(=O)(=O)c3cccnc3N)c(N3C[C@@H](C)CC3(C)C)n2)c1 [Compound 2164, N-[(2-amino-3-pyridyl)sulfonyl]-6-(3-methoxyphenyl)-2-[(4S)-2,2,4-trimethylpyrrolidin-1-yl]pyridine-3-carboxamide] | < 3000
30 | CC1CN(c2ncccc2C(=O)NS(=O)(=O)c2cccc(Oc3cccc(Cl)c3F)n2)C(C)(C)C1 (stereo not shown) [Compound 2165, N—[[6-(3-chloro-2-fluoro-phenoxy)-2-pyridyl]sulfonyl]-2-(2,2,4-trimethylpyrrolidin-1-yl)pyridine-3-carboxamide] | < 3000
31 | CC1CN(c2ncccc2C(=O)NS(=O)(=O)c2cccc(N3CCC(F)(F)C3)n2)C(C)(C)C1 (stereo not shown) [Compound 2166, N—[[6-(3,3-difluoropyrrolidin-1-yl)-2-pyridyl]sulfonyl]-2-(2,2,4-trimethylpyrrolidin-1-yl)pyridine-3-carboxamide] | 3000 to 10000
